Data taken from US9381260B2, “Hypoxia inducible factor-1 pathway inhibitors and uses as anticancer and imaging agents” (EMORY UNIVERSITY, priority 2011, dated 2016).
Converted amounts (≈) assume the structure as drawn. Values belong to the compound of their own block, whether it stands above or below them.

How the values were obtained:
[1] = system: HIF-1 transcriptional activity; assay: HIF-inducible luciferase reporter assay in LN229-V6R cells under hypoxia; type: cell-based, human
Method: (§1) Results are plotted as percent of luciferase activity found in extracts of untreated cells used as controls. (A) Luciferase activity in extracts of LN229-V6R cells, which contain a HIF-inducible luciferase reporter gene. The cells were grown under hypoxia to activate HIF. (B) Luciferase activity in extracts of LN229-Lux cells, which contain a constitutively expressed luciferase reporter gene. Results shown are from cells grown under normoxia; similar results were obtained under hypoxia.
(§2) The effects of the 12 heteroarylsulfonamides on HIF transcriptional activity under hypoxia were measured by determining the luciferase activity present in LN229-V6R cells, which contain a stably integrated hypoxia/HIF inducible luciferase reporter gene. As a control for the absence of inhibition on luciferase enzyme per se, we also tested 1 and five heteroarylsulfonamides in LN229-Lux cells that contain a constitutive luciferase reporter gene driven by a retroviral LTR promoter. An Hsp90 inhibitor, 17-DMAG, and 1 were used as positive controls. […] The heteroarylsulfonamides decreased HIF-1 activity in a dose-dependent fashion with IC50 values below (6a, 6b, 6d-6f, 6h, 6i, 6l) or close to 5 μM (6c, 6g, 6j, 6k) (FIG. 2).

[2] = system: LN229-Lux cells (constitutive luciferase reporter gene); assay: Constitutive luciferase reporter control assay in LN229-Lux cells; type: cell-based, human; conditions: control for luciferase inhibition
Method: as §1, §2

[3] = system: HIF-1α; assay: HIF-1α protein levels by Western blot in LN229-V6R cells under hypoxia; type: cell-based, human; conditions: 24 h; for effect on HIF-1α protein levels: 3-100 μM
Method: HIF-1 is a heterodimer of HIF-1α and HIF-1β subunits, which then associates with p300 or CBP cofactors to form an active transcriptional complex. […] To determine whether the heteroarylsulfonamides retain this property, we determined the levels of HIF-1α protein under hypoxia in LN229-V6R cells. […] We investigated if the levels of HIF-1α protein would correlate with transcriptional inhibition of the HRE reporter by the compounds. LN229-V6R cells were treated with the compounds at concentrations of 3, 6, 12, 25, 50, and 100 μM under hypoxia for 24 h, and then HIF-1α protein levels in the cell extracts were examined by Western blotting. […] 6g and 61 decreased HIF-1a levels in a dose-dependent fashion starting from 12 and 25 μM, respectively (FIG. 3). […] The reduction in HIF-1α levels afforded by all three compounds at 100 μM may reflect nonspecific cytotoxicity.

[4] = log P7.4 by shake flask or HPLC method (OECD guidelines); type: physicochemical; conditions: pH 7.4
Method: Experimental determinations of log P7.4, aqueous solubility, and metabolic stability of a selected number of the heteroarylsulfonamides were performed to further characterize the compounds (Table 2 log P7.4 was measured by either the shake flask method (6a, 6g) or the HPLC method (1, 6b-6f, 6h-6l) according to OECD guidelines. Most compounds followed the trends predicted by in silico calculations, and the measured values were smaller than the predicted values by 1.0-1.5. When a methoxy group or hydroxyl group is placed at the C-8 position of the chromene ring instead of a hydrogen, as in 6g, 6h, and 6l, the log P7.4 value decreased by more than 2 from the predicted values to result in 1.2-1.3. The presence of a 2-methylpropan-2-yl group in region 2 conferred high log P7.4 values, and heteroarylsulfonyl groups in region 1 also affected log P7.4 values, as shown for 6c, 6i, 6j, and 6k.

[5] = Aqueous solubility by HPLC-UV on filtered saturated suspensions; type: physicochemical; conditions: for aqueous solubility (n = 3) / solubility: HPLC-UV, saturated aqueous suspension, PTFE filter 0.2 μm; for solubility: water, thermodynamic from solid, read-out: aqueous solubility (n = 3); for aqueous solubility relative to 1: fold more soluble than compound 1
Source text: Aqueous solubilities of 1, 6a, 6d, and 6g were quantified by HPLC coupled with a UV detector on saturated aqueous suspensions after filtration with a polytetrafluoroethylene (PTFE) filter (pore size 0.2 μm). 6a and 6d were chosen due to their strong activity in the HRE-reporter assay, and 6g was picked to evaluate the influence of the methoxy group attached to the C-8 position of the chromene ring. Aqueous solubilities of 6a, 6d, and 6g are, respectively, 100, 20, and 9000 times better than that of 1, which are consistent with the log Sw predictions for 6a and 6d. The substitution of hydrogen with a methoxy group at the C-8 position of the chromene ring increased the aqueous solubility by 90 times (compare 6a and 6g).

[6] = Aqueous solubility by laser nephelometry at pH 3.0, 5.0, 7.4; type: physicochemical; conditions: pH 5.0 and pH 3.0 versus pH 7.4
[7] = Metabolic stability in homogenates of mouse liver; type: in vitro ADME; conditions: homogenates of mouse liver in PBS 1:2 (w/v), ex vivo; for half-life: mouse, mouse liver homogenate, read-out: half-life (hepatic metabolic stability) (converted)
Method: Metabolic stabilities of 1, 6a, 6d, 6g, and 6l were measured in mouse plasma and homogenates of mouse liver in PBS [1:2 (w/v)].

[8] = system: LN229 human glioblastoma cells; assay: Clonogenicity assay LN229; type: cell-based; conditions: LN-229, 336 h, 14 days
Source text: (§3) To determine whether 6a, 6g, and 6l altered tumor cell growth in culture, we performed sulforhodamine B (SRB) assays in LN229-V6R glioma cells in 3 days, and to further examine the cell growth inhibitory activity of 6a, 6g, and 61 in an independent biological assay, we performed clonogenicity assays in LN229 human glioblastoma cells and HFF-1 immortalized human fibroblasts, over a period of 14 days.

[9] = system: HFF-1 immortalized human fibroblasts; assay: Clonogenicity assay HFF-1; type: cell-based; conditions: HFF-1, 336 h, 14 days
Source text: as §3

Compound: CO[C@H]1/C=C\C=C(/C)C(=O)NC2=CC(=O)C(NCCN(C)C)=C(C[C@@H](C)C[C@H](OC)[C@H](O)[C@@H](C)/C=C(\C)[C@@H]1OC(N)=O)C2=O [17-DMAG, reference compound]
- effect on luciferase activity in LN229-V6R cells [1]: inhibited
- effect on luciferase activity in LN229-Lux cells [2]: inhibited

Compound: COc1ccc(S(=O)(=O)N(Cc2ccc3c(c2)C=CC(C)(C)O3)c2ccccc2)cc1OC [Compound 1, 3,4-Dimethoxy-N-[(2,2-dimethyl-2H-chromene-6-yl)methyl]-N-phenylbenzenesulfonamide, reference compound]
- activity at 2.5 µM ([1]; Homo sapiens, 2.5 μM, LN229-V6R cells, read-out: remaining HIF-1 activity at 2.5 μM, % of control): 18%
- effect on luciferase activity in LN229-Lux cells [2]: reduced luciferase activity only in LN229-V6R cells
- effect on HIF-1α protein levels [3]: does not antagonize hypoxia-induced HIF-1α expression
- log P7.4 [4]: 3.7
- aqueous solubility (n = 3) [5]: 0.009 µM (≈ 0.00419 µg/mL)
- solubility [5]: 0.003 µg/mL (≈ 0.00644 µM)
- effect of low pH on aqueous solubility [6]: pH did not affect aqueous solubility
- half-life [7]: 660 min

Compound: CC(C)N(Cc1ccc2c(c1)C=CC(C)(C)O2)S(=O)(=O)c1ccccn1 [Compound 6a, N-[(2,2-Dimethyl-2H-chromen-6-yl)methyl]-N-(propan-2-yl)pyridine-2-sulfonamide]
- inhibition of HIF-1 transcriptional activity (HRE-reporter) at 10 μM ([1]; 10 μM, LN229-V6R cells, 1 day): inhibited completely
- IC50 ([1]; Homo sapiens, LN229-V6R cells): < 5 µM
- effect on HIF-1α protein levels [3]: no effect on HIF-1α levels at all concentrations tested, except for a slight reduction at the highest concentration (100 μM)
- log P7.4 [4]: 2.0
- aqueous solubility (n = 3) [5]: 1 ± 0.1 µM (≈ 0.372 µg/mL)
- aqueous solubility relative to 1 [5]: 100 times
- solubility [5]: 0.3 µg/mL (≈ 0.805 µM)
- effect of low pH on aqueous solubility [6]: 50-60 times
- half-life (hepatic metabolic stability) [7]: 20 h
- half-life [7]: 780 to 1200 min
- IC50 ([8]; LN229, hypoxia): 134 µM
- IC50 ([8]; LN229, normoxia): 82 µM
- IC50 ([9]; HFF-1, hypoxia): 93 µM
- IC50 ([9]; HFF-1, normoxia): 62 µM

Compound: CC1(C)C=Cc2cc(CN(C3CC3)S(=O)(=O)c3ccccn3)ccc2O1 [Compound 6b, N-Cyclopropyl-N-[(2,2-dimethyl-2H-chromen-6-yl)methyl]pyridine-2-sulfonamide]
- IC50 ([1]; Homo sapiens, LN229-V6R cells): < 5 µM
- log P7.4 [4]: 3.0

Compound: CC(C)CN(Cc1ccc2c(c1)C=CC(C)(C)O2)S(=O)(=O)c1ccccn1 [Compound 6c, N-[(2,2-Dimethyl-2H-chromen-6-yl)methyl]-N-(2-methylpropyl)pyridine-2-sulfonamide]
- log P7.4 [4]: 4.1

Compound: CC1(C)C=Cc2cc(CN(CC3CC3)S(=O)(=O)c3ccccn3)ccc2O1 [Compound 6d, N-(Cyclopropylmethyl)-N-[(2,2-dimethyl-2H-chromen-6-yl)methyl]pyridine-2-sulfonamide]
- log P7.4 [4]: 3.1
- aqueous solubility (n = 3) [5]: 0.2 ± 0.07 µM (≈ 0.0769 µg/mL)
- aqueous solubility relative to 1 [5]: 20 times
- solubility [5]: 0.1 µg/mL (≈ 0.26 µM)
- half-life (hepatic metabolic stability) [7]: 13 h
- half-life [7]: 780 to 1200 min

Continued, in another order:

- log P7.4 [4]: 3.0
Compound: CC1(C)C=Cc2cc(CN(C3CCC3)S(=O)(=O)c3ccccn3)ccc2O1 [Compound 6e, N-(Cyclobutyl)-N-[(2,2-dimethyl-2H-chromen-6-yl)methyl]pyridine-2-sulfonamide]

- log P7.4 [4]: 3.8
Compound: CC1(C)C=Cc2cc(CN(C3CCCC3)S(=O)(=O)c3ccccn3)ccc2O1 [Compound 6f, N-(Cyclopentyl)-N-[(2,2-dimethyl-2H-chromen-6-yl)methyl]pyridine-2-sulfonamide]

- aqueous solubility relative to 1 [5]: 9000 times
- half-life (hepatic metabolic stability) [7]: 15 h
- half-life [7]: 780 to 1200 min
- IC50 ([8]; LN229, hypoxia): > 100 µM
- IC50 ([8]; LN229, normoxia): 69 µM
Compound: COc1cc(CN(C(C)C)S(=O)(=O)c2ccccn2)cc2c1OC(C)(C)C=C2 [Compound 6g]
- concentration from which HIF-1α levels decreased dose-dependently [3]: 12 µM
- IC50 ([9]; HFF-1, hypoxia): > 100 µM
- IC50 ([9]; HFF-1, normoxia): 55 µM

- IC50 ([1]; Homo sapiens, LN229-V6R cells): < 5 µM
- log P7.4 [4]: 3.6
Compound: CC(C)CN(Cc1ccc2c(c1)C=CC(C)(C)O2)S(=O)(=O)c1ccncc1 [Compound 6i, N-[(2,2-Dimethyl-2H-chromen-6-yl)methyl]-N-(2-methylpropyl)pyridine-4-sulfonamide]

- log P7.4 [4]: 3.1
Compound: CC(C)CN(Cc1ccc2c(c1)C=CC(C)(C)O2)S(=O)(=O)c1nccn1C [Compound 6j, N-[(2,2-Dimethyl-2H-chromen-6-yl)methyl]-N-(2-methylpropyl)-1-methyl-1H-imidazole-2-sulfonamide]

- log P7.4 [4]: 4.4
Compound: CC(C)CN(Cc1ccc2c(c1)C=CC(C)(C)O2)S(=O)(=O)c1nccs1 [Compound 6k, N-[(2,2-Dimethyl-2H-chromen-6-yl)methyl]-N-(2-methylpropyl)-1,3-thiazole-2-sulfonamide]
